From ChEMBL document CHEMBL1155173, “Modulation of the cellular accumulation and intracellular activity of daptomycin towards phagocytized Staphylococcus aureus by the P-glycoprotein (MDR1) efflux transporter in human THP-1 macrophages and madin-darby canine kidney cells” (Antimicrob Agents Chemother, 2007)
In brackets after ≈: the same amount, converted by molar mass. Activity calls are given as the source filed them. No cut-off for these calls is given here.

Columns and labels:
MDCK [1] = experiment: Cellular uptake in methicillin-sensitive Staphylococcus aureus ATCC 25923 phagocytized in MDCK cells over expressing human MDR1 cells assessed as apparent cellular to extracellular concentration ratio at 250 mg/liter after 24 hrs by fluorimetry in presence of 1 uM ouabain; assay type: ADME, cell-based, Canis lupus familiaris; settings: dog
Staphylococcus aureus [2] = experiment: Antibacterial activity against methicillin-sensitive Staphylococcus aureus ATCC 25923 phagocytized in wild type MDCK cells assessed as decrease in CFU at 1 mg/liter after 24 hrs; assay type: functional
THP-1 [3] = experiment: Cellular uptake in methicillin-sensitive Staphylococcus aureus ATCC 25923 phagocytized in human THP1 cells assessed as apparent cellular to extracellular concentration ratio at 250 mg/liter after 24 hrs by fluorimetry in presence of 100 uM verapamil; assay type: ADME, cell-based; settings: thp-1, 24 h
MDCK [4] = experiment: Cellular uptake in methicillin-sensitive Staphylococcus aureus ATCC 25923 phagocytized in MDCK cells over expressing human MDR1 cells assessed as apparent cellular to extracellular concentration ratio at 250 mg/liter after 24 hrs by fluorimetry in presence of 250 uM gemfibrozil; assay type: ADME, cell-based, Canis lupus familiaris; settings: dog
THP-1 [5] = experiment: Cellular uptake in methicillin-sensitive Staphylococcus aureus ATCC 25923 phagocytized in human THP1 cells assessed as apparent cellular to extracellular concentration ratio at 250 mg/liter after 24 hrs by fluorimetry in presence of 1 uM ouabain; assay type: ADME, cell-based; settings: thp-1, 24 h
MDCK [6] = experiment: Cellular uptake in methicillin-sensitive Staphylococcus aureus ATCC 25923 phagocytized in wild type MDCK cells assessed as apparent cellular to extracellular concentration ratio at 250 mg/liter after 24 hrs by fluorimetry in presence of 1 uM ouabain; assay type: ADME, cell-based, Canis lupus familiaris; settings: dog
Staphylococcus aureus [7] = experiment: Antibacterial activity against methicillin-sensitive Staphylococcus aureus ATCC 25923 phagocytized in human THP1 cells after 24 hrs in presence of 1 mg/liter daptomycin; assay type: functional, organism-based; settings: THP-1
Staphylococcus aureus [8] = experiment: Antibacterial activity against methicillin-sensitive Staphylococcus aureus ATCC 25923 phagocytized in wild type MDCK cells assessed as decrease in CFU at 1 mg/liter after 24 hrs in presence of 100 uM verapamil; assay type: functional
MDCK [9] = experiment: Cellular uptake in methicillin-sensitive Staphylococcus aureus ATCC 25923 phagocytized in MDCK cells over expressing human MDR1 assessed as apparent cellular to extracellular concentration ratio at 250 mg/liter after 24 hrs by fluorimetry; assay type: ADME, cell-based, Canis lupus familiaris; settings: dog
THP-1 [10] = experiment: Cellular uptake in methicillin-sensitive Staphylococcus aureus ATCC 25923 phagocytized in human THP1 cells assessed as apparent cellular to extracellular concentration ratio at 250 mg/liter after 24 hrs under 2-deoxyglucose-induced ATP depleted condition by fluorimetry; assay type: ADME, cell-based; settings: thp-1, 24 h
MDCK [11] = experiment: Cellular uptake in methicillin-sensitive Staphylococcus aureus ATCC 25923 phagocytized in wild type MDCK cells assessed as apparent cellular to extracellular concentration ratio at 250 mg/liter after 24 hrs by fluorimetry in presence of 250 uM gemfibrozil; assay type: ADME, cell-based, Canis lupus familiaris; settings: dog
Staphylococcus aureus [12] = experiment: Antibacterial activity against methicillin-sensitive Staphylococcus aureus ATCC 25923 phagocytized in human THP1 cells assessed as decrease in CFU at 1 mg/liter after 24 hrs in presence of 0.5 uM elacridar; assay type: functional, THP-1
Staphylococcus aureus [13] = experiment: Antibacterial activity against methicillin-sensitive Staphylococcus aureus ATCC 25923 phagocytized in wild type MDCK cells assessed as concentration resulting in no apparent bacterial growth after 24 hrs in presence of 100 uM verapamil; assay type: functional
Staphylococcus aureus [14] = experiment: Antibacterial activity against methicillin-sensitive Staphylococcus aureus ATCC 25923 phagocytized in human THP1 cells assessed as decrease in CFU at 1 mg/liter after 24 hrs in presence of 100 uM verapamil; assay type: functional, THP-1
Staphylococcus aureus [15] = experiment: Antibacterial activity against methicillin-sensitive Staphylococcus aureus ATCC 25923 phagocytized in wild type MDCK cells after 24 hrs; assay type: functional, organism-based; settings: ATCC 25923, MDCK
Staphylococcus aureus [16] = experiment: Antibacterial activity against methicillin-sensitive Staphylococcus aureus ATCC 25923 phagocytized in human THP1 cells assessed as concentration resulting in no apparent bacterial growth after 24 hrs in presence of 100 uM verapamil; assay type: functional, THP-1
THP-1 [17] = experiment: Cellular uptake in methicillin-sensitive Staphylococcus aureus ATCC 25923 phagocytized in human THP1 cells assessed as apparent cellular to extracellular concentration ratio at 250 mg/liter after 24 hrs by fluorimetry in presence of 250 uM gemfibrozil; assay type: ADME, cell-based; settings: thp-1, 24 h
Staphylococcus aureus [18] = experiment: Antibacterial activity against methicillin-sensitive Staphylococcus aureus ATCC 25923 phagocytized in MDCK cells over expressing human […] assessed as concentration resulting in no apparent bacterial growth after 24 hrs in presence of 100 uM verapamil; assay type: functional
Staphylococcus aureus [19] = experiment: Antibacterial activity against methicillin-sensitive Staphylococcus aureus ATCC 25923 phagocytized in human THP1 cells after 24 hrs in presence of 100 uM verapamil; assay type: functional, organism-based; settings: ATCC 25923, THP-1, 24 h
Staphylococcus aureus [20] = experiment: Antibacterial activity against methicillin-sensitive Staphylococcus aureus ATCC 25923 phagocytized in human THP1 cells after 24 hrs; assay type: functional, organism-based; settings: ATCC 25923, THP-1, 24 h
Staphylococcus aureus [21] = experiment: Antibacterial activity against methicillin-sensitive Staphylococcus aureus ATCC 25923 phagocytized in MDCK cells over expressing human […] after 24 hrs in presence of 100 uM verapamil; assay type: functional, organism-based; settings: ATCC 25923, MDCK
Staphylococcus aureus [22] = experiment: Antibacterial activity against methicillin-sensitive Staphylococcus aureus ATCC 25923 phagocytized in MDCK cells over expressing human […] assessed as concentration resulting in no apparent bacterial growth after 24 hrs; assay type: functional
Staphylococcus aureus [23] = experiment: Antibacterial activity against methicillin-sensitive Staphylococcus aureus ATCC 25923 phagocytized in human THP1 cells assessed as decrease in CFU at 1 mg/liter after 24 hrs; assay type: functional, THP-1
Staphylococcus aureus [24] = experiment: Antibacterial activity against methicillin-sensitive Staphylococcus aureus ATCC 25923 phagocytized in wild type MDCK cells after 24 hrs in presence of 100 uM verapamil; assay type: functional, organism-based; settings: ATCC 25923, MDCK
Staphylococcus aureus [25] = experiment: Antibacterial activity against methicillin-sensitive Staphylococcus aureus ATCC 25923 phagocytized in MDCK cells over expressing human […] at 1 mg/liter after 24 hrs; assay type: functional, organism-based; settings: ATCC 25923, MDCK
MDCK [26] = experiment: Cellular uptake in methicillin-sensitive Staphylococcus aureus ATCC 25923 phagocytized in MDCK cells over expressing human MDR1 cells assessed as apparent cellular to extracellular concentration ratio at 250 mg/liter after 24 hrs by fluorimetry in presence of 100 uM verapamil; assay type: ADME, cell-based, Canis lupus familiaris; settings: dog
MDCK [27] = experiment: Cellular uptake in methicillin-sensitive Staphylococcus aureus ATCC 25923 phagocytized in wild type MDCK cells assessed as apparent cellular to extracellular concentration ratio at 250 mg/liter after 24 hrs by fluorimetry; assay type: ADME, cell-based, Canis lupus familiaris; settings: dog
Staphylococcus aureus [28] = experiment: Antibacterial activity against methicillin-sensitive Staphylococcus aureus ATCC 25923 phagocytized in human THP1 cells after 24 hrs in presence of 0.5 uM elacridar; assay type: functional, organism-based; settings: ATCC 25923, THP-1, 24 h
Staphylococcus aureus [29] = experiment: Antibacterial activity against methicillin-sensitive Staphylococcus aureus ATCC 25923 phagocytized in MDCK cells over expressing human […] assessed as decrease in CFU at 1 mg/liter after 24 hrs in presence of 100 uM verapamil; assay type: functional
MDCK [30] = experiment: Cellular uptake in methicillin-sensitive Staphylococcus aureus ATCC 25923 phagocytized in wild type MDCK cells assessed as apparent cellular to extracellular concentration ratio at 250 mg/liter after 24 hrs by fluorimetry in presence of 100 uM verapamil; assay type: ADME, cell-based, Canis lupus familiaris; settings: dog
Staphylococcus aureus [31] = experiment: Antibacterial activity against methicillin-sensitive Staphylococcus aureus ATCC 25923 phagocytized in human THP1 cells assessed as concentration resulting in no apparent bacterial growth after 24 hrs in presence of 0.5 uM elacridar; assay type: functional, THP-1
Staphylococcus aureus [32] = experiment: Antibacterial activity against methicillin-sensitive Staphylococcus aureus ATCC 25923 phagocytized in MDCK cells over expressing human […] assessed as decrease in CFU at 1 mg/liter after 24 hrs; assay type: functional
Staphylococcus aureus [33] = experiment: Antibacterial activity against methicillin-sensitive Staphylococcus aureus ATCC 25923 phagocytized in human THP1 cells assessed as concentration resulting in no apparent bacterial growth after 24 hrs; assay type: functional, THP-1
Staphylococcus aureus [34] = experiment: Antibacterial activity against methicillin-sensitive Staphylococcus aureus ATCC 25923 phagocytized in wild type MDCK cells assessed as concentration resulting in no apparent bacterial growth after 24 hrs; assay type: functional
THP-1 [35] = experiment: Cellular uptake in methicillin-sensitive Staphylococcus aureus ATCC 25923 phagocytized in human THP1 cells assessed as apparent cellular to extracellular concentration ratio at 250 mg/liter after 24 hrs by fluorimetry; assay type: ADME, cell-based; settings: thp-1, 24 h
THP-1 [36] = experiment: Decrease in intracellular calcium concentration in human THP1 cells at 250 uM after 60 mins; assay type: functional, cell-based
THP-1 [37] = experiment: Cellular uptake in methicillin-sensitive Staphylococcus aureus ATCC 25923 phagocytized in human mdr1 siRNAs- induced MDR1 deficient human THP1 cells assessed as increase accumulation at 250 mg/liter after 24 hrs by […]; assay type: ADME, cell-based; settings: thp-1, 24 h
THP-1 [38] = experiment: Decrease in intracellular calcium concentration in human THP1 cells at 50 uM after 60 mins; assay type: functional; parameters: scale not given: the % may be the effect or the level left
THP-1 [39] = experiment: Decrease in intracellular calcium concentration in human THP1 cells at 100 uM after 60 mins; assay type: functional; parameters: scale not given: the % may be the effect or the level left

CCCCCCCCCC(=O)N[C@@H](Cc1c[nH]c2ccccc12)C(=O)N[C@H](CC(N)=O)C(=O)N[C@@H](CC(=O)O)C(=O)N[C@@H]1C(=O)NCC(=O)N[C@@H](CCCN)C(=O)N[C@@H](CC(=O)O)C(=O)N[C@H](C)C(=O)N[C@@H](CC(=O)O)C(=O)NCC(=O)N[C@H](CO)C(=O)N[C@@H]([C@H](C)CC(=O)O)C(=O)N[C@@H](CC(=O)c2ccccc2N)C(=O)O[C@@H]1C
Ratio (MDCK [1]): 0.03
log10cfu (Staphylococcus aureus [2]): -1.7
Ratio (THP-1 [3]): 0.75
Ratio (MDCK [4]): 0.07
Ratio (THP-1 [5]): 0.12
Ratio (MDCK [6]): 0.04
Activity (Staphylococcus aureus [7]): Dose-dependent effect
log10cfu (Staphylococcus aureus [8]): -2.01
Ratio (MDCK [9]): 0.08
Ratio (THP-1 [10]): 0.82
Ratio (MDCK [11]): 0.18
log10cfu (Staphylococcus aureus [12]): -1.67
Activity (Staphylococcus aureus [13]): 0.2 mg/L
log10cfu (Staphylococcus aureus [14]): -1.82
EC50 (Staphylococcus aureus [15]): 0.62 µg/mL (≈ 0.383 µM)
Activity (Staphylococcus aureus [16]): 0.4 mg/L
Ratio (THP-1 [17]): 0.18
Activity (Staphylococcus aureus [18]): 0.6 mg/L
EC50 (Staphylococcus aureus [19]): 0.31 µg/mL
EC50 (Staphylococcus aureus [20]): 1.14 µg/mL (≈ 0.703 µM)
EC50 (Staphylococcus aureus [21]): 0.7 µg/mL
Activity (Staphylococcus aureus [22]): 2.1 mg/L
log10cfu (Staphylococcus aureus [23]): -1.6
EC50 (Staphylococcus aureus [24]): 0.18 µg/mL
EC50 (Staphylococcus aureus [25]): 2.67 µg/mL (≈ 1.65 µM)
Ratio (MDCK [26]): 0.3
Ratio (MDCK [27]): 0.23
EC50 (Staphylococcus aureus [28]): 0.27 µg/mL
log10cfu (Staphylococcus aureus [29]): -1.78
Ratio (MDCK [30]): 0.83
Activity (Staphylococcus aureus [31]): 0.4 mg/L
log10cfu (Staphylococcus aureus [32]): -1.77
Activity (Staphylococcus aureus [33]): 1.3 mg/L
Activity (Staphylococcus aureus [34]): 0.6 mg/L
Ratio (THP-1 [35]): 0.21

Cc1ccc(C)c(OCCCC(C)(C)C(=O)O)c1
Activity (THP-1 [36]): inactive

C[C@@H]1O[C@@H](O[C@H]2C[C@@H](O)[C@]3(CO)[C@H]4[C@H](O)C[C@]5(C)[C@@H](C6=CC(=O)OC6)CC[C@]5(O)[C@@H]4CC[C@]3(O)C2)[C@H](O)[C@H](O)[C@H]1O [OUABAIN]
Activity (THP-1 [37]): Active

C[C@H](CCC(=O)[O-])C[C@H](C)C[C@H](C)C(=O)/C=C(\[O-])[C@H](C)C[C@H](C)C/C=C/[C@@H](C)[C@@H](O)[C@@H](C)[C@@H](O)C[C@@H]1CC[C@@](C)([C@H]2CC[C@@](C)([C@@H](C)O)O2)O1.[Ca+2] [IONOMYCIN CALCIUM]
Activity (THP-1 [38]): 75%

COc1cc2c(cc1OC)CN(CCc1ccc(NC(=O)c3cccc4c(=O)c5cccc(OC)c5[nH]c34)cc1)CC2
Activity (Staphylococcus aureus [7]): Dose-dependent effect

COc1ccc(CCN(C)CCCC(C#N)(c2ccc(OC)c(OC)c2)C(C)C)cc1OC (stereo unspecified) [VERAPAMIL]
Activity (Staphylococcus aureus [7]): Dose-dependent effect
Activity (THP-1 [39]): 25%
